# Data published in ChEMBL document CHEMBL5346927, “Discovery of a novel 1H-pyrazole- [3,4-b] pyridine-based lysine demethylase 5B inhibitor with potential anti-prostate cancer activity that perturbs the phosphoinositide 3-kinase/AKT pathway” (Eur J Med Chem, 2023).
# The source made the active and inactive calls. The calls are words filed in the database; no cut-off is given here.
# Tests used:
# [1] = molecular target: T1, Lysine-specific demethylase 5B (Homo sapiens, UniProt Q9UGL1); experiment: Inhibition of KDM5B (unknown origin)
# T1 sequence (Q9UGL1 whole entry): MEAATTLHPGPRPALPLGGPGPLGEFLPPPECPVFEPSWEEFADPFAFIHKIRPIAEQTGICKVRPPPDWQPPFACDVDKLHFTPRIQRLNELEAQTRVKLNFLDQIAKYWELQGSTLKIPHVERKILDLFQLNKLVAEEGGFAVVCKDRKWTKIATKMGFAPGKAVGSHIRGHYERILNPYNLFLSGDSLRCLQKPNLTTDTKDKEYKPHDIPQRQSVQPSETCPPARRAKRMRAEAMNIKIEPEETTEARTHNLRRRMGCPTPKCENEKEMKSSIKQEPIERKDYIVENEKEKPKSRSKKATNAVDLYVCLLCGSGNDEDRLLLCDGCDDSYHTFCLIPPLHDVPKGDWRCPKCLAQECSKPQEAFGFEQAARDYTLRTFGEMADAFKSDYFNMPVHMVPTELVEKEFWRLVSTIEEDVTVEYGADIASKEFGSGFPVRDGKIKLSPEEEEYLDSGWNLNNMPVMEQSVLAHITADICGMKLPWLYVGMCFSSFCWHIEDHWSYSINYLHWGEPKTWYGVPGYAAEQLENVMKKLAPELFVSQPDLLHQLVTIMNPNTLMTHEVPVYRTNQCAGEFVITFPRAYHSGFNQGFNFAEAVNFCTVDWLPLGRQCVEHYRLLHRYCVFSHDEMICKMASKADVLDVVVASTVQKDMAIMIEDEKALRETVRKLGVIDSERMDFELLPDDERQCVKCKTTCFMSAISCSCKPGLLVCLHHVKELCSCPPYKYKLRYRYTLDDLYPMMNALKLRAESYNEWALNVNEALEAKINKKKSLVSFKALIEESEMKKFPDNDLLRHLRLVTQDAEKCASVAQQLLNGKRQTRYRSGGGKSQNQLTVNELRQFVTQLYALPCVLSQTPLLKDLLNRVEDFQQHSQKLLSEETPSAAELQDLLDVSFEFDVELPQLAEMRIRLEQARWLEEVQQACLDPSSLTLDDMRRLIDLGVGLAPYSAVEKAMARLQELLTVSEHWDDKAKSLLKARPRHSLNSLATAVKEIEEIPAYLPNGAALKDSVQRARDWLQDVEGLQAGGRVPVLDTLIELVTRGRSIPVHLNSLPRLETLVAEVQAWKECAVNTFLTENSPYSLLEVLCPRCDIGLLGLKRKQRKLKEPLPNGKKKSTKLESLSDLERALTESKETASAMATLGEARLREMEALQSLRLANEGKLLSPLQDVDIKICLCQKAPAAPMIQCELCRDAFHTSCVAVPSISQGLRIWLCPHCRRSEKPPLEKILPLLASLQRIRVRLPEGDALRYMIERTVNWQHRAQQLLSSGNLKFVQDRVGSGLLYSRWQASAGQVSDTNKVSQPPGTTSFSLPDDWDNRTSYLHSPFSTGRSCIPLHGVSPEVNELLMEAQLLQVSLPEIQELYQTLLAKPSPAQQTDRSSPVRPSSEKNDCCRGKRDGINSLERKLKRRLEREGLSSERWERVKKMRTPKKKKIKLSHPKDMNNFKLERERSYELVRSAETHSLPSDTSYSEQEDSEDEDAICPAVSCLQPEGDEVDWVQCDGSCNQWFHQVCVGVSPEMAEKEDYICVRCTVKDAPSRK
# MCF7 = experiment: Antitumor activity against human MCF7 cells assessed as inhibition of cell proliferation incubated for 72 hrs by MTT assay; format: functional, cell-based; settings: MCF7, 72 h
# HepG2 = experiment: Antitumor activity against human HepG2 cells assessed as inhibition of cell proliferation incubated for 72 hrs by MTT assay; format: functional, cell-based; settings: HepG2, 72 h
# MGC-803 = experiment: Antitumor activity against human MGC-803 cells assessed as inhibition of cell proliferation incubated for 72 hrs by MTT assay; format: functional, cell-based; settings: MGC-803, 72 h
# [2] = Cytotoxicity against human WPMY-1 cells incubated for 72 hrs by MTT assay; format: toxicity, cell-based
# [3] = molecular target: T1, Lysine-specific demethylase 5B; experiment: Binding affinity to KDM5B in human PC-3 cells assessed as thermal stability by measuring KDM5B expression level preincubated with compound for 6 hrs followed by 20 mins incubation under 46 to 56 degreeC by CETSA based Western blot analysis; format: cell-based; settings: time 380.0 min
# [4] = Cmax in ICR mouse at 25 mg/kg, IG measured at 0.083 to 24 hrs by LC-MS analysis; format: ADME, organism-based; set-up: time lower 0.083 hrs, dose 25 mg/kg, time upper 24 hrs, route ig; settings: in vivo, po
# [5] = Tmax in ICR mouse at 25 mg/kg, IG measured at 0.083 to 24 hrs by LC-MS analysis; format: ADME, organism-based; settings: in vivo, po, time 0.083-24 hrs
# [6] = molecular target: T1, Lysine-specific demethylase 5B; experiment: Inhibition of KDM5B in human PC-3 cells assessed as H3K4me2 accumulation incubated for 72 hrs by Western blot analysis; format: cell-based
# PC-3 [7] = experiment: Inhibition of cell migration in human PC-3 cells at 5 to 10 uM by wound scratch assay; format: functional, cell-based; settings: dose 5-10 µM, time <= 24.0 hrs, TDE = time-dependent effect
# LNCaP = experiment: Inhibition of colony formation in human LNCaP cells incubated for 72 hrs by crystal violet staining based microplate reader analysis; format: functional, cell-based
# PC-3 [8] = experiment: Induction of cell cycle arrest in human PC-3 cells assessed as increase in G2/M phase cell ratio at 10 uM incubated for 24 hrs by PI/RNase A staining based flow cytometric analysis (reference value: 16.07%); format: functional
# PC-3 [9] = experiment: Induction of apoptosis in human PC-3 cells assessed as viable cells at 2.5 uM incubated for 72 hrs by Annexin V-FITC/PI staining based flow cytometric analysis (reference value: 90.93%); format: functional; settings: read-out: Activity
# PC-3 [10] = experiment: Induction of apoptosis in human PC-3 cells assessed as necrotic cells at 2.5 uM incubated for 72 hrs by Annexin V-FITC/PI staining based flow cytometric analysis (reference value: 5.01%); format: functional
# PC-3 [11] = experiment: Induction of apoptosis in human PC-3 cells assessed as viable cells at 5 uM incubated for 72 hrs by Annexin V-FITC/PI staining based flow cytometric analysis (reference value: 90.93%); format: functional; settings: read-out: Activity
# PC-3 [12] = experiment: Induction of apoptosis in human PC-3 cells assessed as necrotic cells at 5 uM incubated for 72 hrs by Annexin V-FITC/PI staining based flow cytometric analysis (reference value: 5.01%); format: functional
# PC-3 [13] = experiment: Induction of apoptosis in human PC-3 cells assessed as viable cells at 10 uM incubated for 72 hrs by Annexin V-FITC/PI staining based flow cytometric analysis (reference value: 90.93%); format: functional; settings: read-out: Activity
# PC-3 [14] = experiment: Induction of apoptosis in human PC-3 cells assessed as early apoptotic cells at 10 uM incubated for 72 hrs by Annexin V-FITC/PI staining based flow cytometric analysis (reference value: 3.01%); format: functional
# PC-3 [15] = experiment: Induction of apoptosis in human PC-3 cells assessed as late apoptotic cells at 10 uM incubated for 72 hrs by Annexin V-FITC/PI staining based flow cytometric analysis (reference value: 1.05%); format: functional
# [16] = Oral bioavailability in ICR mouse at 25 mg/kg measured at 0.083 to 24 hrs by LC-MS analysis; format: ADME, organism-based; settings: in vivo, time 0.083-24 hrs
# [17] = MRT (0 to t) in ICR mouse at 5 mg/kg, iv measured at 0.083 to 24 hrs by LC-MS analysis; format: ADME, organism-based; settings: in vivo, time 0.083-24 hrs
# [18] = Apparent volume of distribution in ICR mouse at 5 mg/kg, iv measured at 0.083 to 24 hrs by LC-MS analysis; format: ADME, organism-based; settings: in vivo, time 0.083-24 hrs
# [19] = Clearance in ICR mouse at 5 mg/kg, iv measured at 0.083 to 24 hrs by LC-MS analysis; format: ADME, organism-based; settings: in vivo, time 0.083-24 hrs
# [20] = Acute toxicity in Kunming mouse assessed as effect on survival at 2 g/Kg, IG measured after 2 weeks; settings: in vivo, po, 2000 mg/kg, 336 h
# [21] = Acute toxicity in Kunming mouse assessed as effect on spleen at 2 g/Kg, IG measured after 2 weeks by H&E staining based analysis; format: tissue-based; settings: in vivo, po, 2000 mg/kg, 336 h
# [22] = Acute toxicity in Kunming mouse assessed as effect on lung at 2 g/Kg, IG measured after 2 weeks by H&E staining based analysis; format: tissue-based; settings: in vivo, po, 2000 mg/kg, 336 h
# [23] = Acute toxicity in Kunming mouse assessed as effect on kidney at 2 g/Kg, IG measured after 2 weeks by H&E staining based analysis; format: tissue-based; settings: in vivo, po, 2000 mg/kg, 336 h
# PC-3 [24] = experiment: Antitumor activity against human PC-3 cells xenografted in BALB/C nude mice assessed as decrease in tumor weight at 25 to 50 mg/kg, IG administered for 25 days; format: functional, organism-based; settings: dose 25-50 mg/kg, time 25.0 day
# [25] = Toxicity in BALB/C nude mouse xenografted with human PC-3 cells assessed as effect on body weight at 25 to 50 mg/kg, IG administered for 25 days; format: organism-based; settings: in vivo, po, 600 h, dose 25-50 mg/kg, time 25 day
# [26] = Toxicity in BALB/C nude mouse xenografted with human PC-3 cells assessed as heart damage at 25 to 50 mg/kg, IG administered for 25 days by H&E staining based analysis; format: organism-based; settings: in vivo, po, 600 h, dose 25-50 mg/kg, time 25 day
# [27] = Toxicity in BALB/C nude mouse xenografted with human PC-3 cells assessed as spleen damage at 25 to 50 mg/kg, IG administered for 25 days by H&E staining based analysis; format: organism-based; settings: in vivo, po, 600 h, dose 25-50 mg/kg, time 25 day
# [28] = Toxicity in BALB/C nude mouse xenografted with human PC-3 cells assessed as indistinct prostate tube wall at 25 mg/kg, IG administered for 25 days by H&E staining based analysis; format: organism-based; settings: in vivo, po, 600 h, time 25 day
# [29] = Toxicity in BALB/C nude mouse xenografted with human PC-3 cells assessed as reduction in prostate gland cells at 25 mg/kg, IG administered for 25 days by H&E staining based analysis; format: organism-based; settings: in vivo, po, 600 h, time 25 day
# PC-3 [30] = experiment: Inhibition of PI3K/AKT pathway in human PC-3 cells assessed as decrease in P110alpha level at 10 uM by Western blot analysis; format: cell-based
# PC-3 [31] = experiment: Inhibition of PI3K/AKT pathway in human PC-3 cells assessed as decrease in P110alpha level at 20 uM by Western blot analysis relative to control; format: cell-based
# PC-3 [32] = experiment: Inhibition of PI3K/AKT pathway in human PC-3 cells assessed as decrease in AKT phosphorylation at Ser473 residue at 2.5 to 10 uM by Western blot analysis; format: cell-based; settings: dose 2.5-10 µM
# PC-3 [33] = experiment: Inhibition of PI3K/AKT pathway in human PC-3 cells assessed as decrease in AKT phosphorylation at Ser473 residue at 20 uM by Western blot analysis relative to control; format: cell-based
smiles,measurement,setting,value
CN1CCN(CCNC(=O)c2cc(-c3ccc4ccccc4c3)nc3c2cnn3-c2ccccc2)CC1,IC50,[1],0.025 µM
same,IC50,MCF7,6.77 µM
same,IC50,HepG2,5.76 µM
same,IC50,MGC-803,6.09 µM
same,IC50 at 72 h,[2],27.9 µM
same,Activity,[3],Active
same,Cmax,[4],412 ng/mL
same,Tmax,[5],6 h
same,inhibition,[6],Dose-Dependent Effect
same,inhibition,PC-3 [7],Tde
same,inhibition,LNCaP,Dose-Dependent Effect
same,Activity,PC-3 [8],75.33%
same,viability at 2.5 µM,PC-3 [9],75%
same,Activity,PC-3 [10],18.36%
same,viability at 5 µM,PC-3 [11],73%
same,Activity,PC-3 [12],18.77%
same,viability at 10 µM,PC-3 [13],58.8%
same,Activity,PC-3 [14],0.81%
same,Activity,PC-3 [15],16.39%
same,F,[16],20.28%
same,MRT(t),[17],10.29 h
same,Vz,[18],19.51 L/kg
same,CL,[19],8.17 mL/min/kg
same,Activity,[20],Non-Toxic
same,Activity,[21],Non-Toxic
same,Activity,[22],Non-Toxic
same,Activity,[23],Non-Toxic
same,Activity,PC-3 [24],Active
same,Activity,[25],Non-Toxic
same,Activity,[26],Non-Toxic
same,Activity,[27],Non-Toxic
same,Activity,[28],Non-Toxic
same,Activity,[29],Non-Toxic
same,inhibition,PC-3 [30],Active
same,inhibition,PC-3 [31],80%
same,inhibition,PC-3 [32],inactive
same,inhibition,PC-3 [33],40%
